Source: ChEMBL document CHEMBL3991943, “Pharmaceutical formulations comprising salts of a protein kinase inhibitor and methods of using same” (2013)

Columns and labels:
[1] = Solubility of the compound in PBS buffer at pH 7; assay type: physicochemical
[2] = Solubility of the compound in water by HPLC analysis; assay type: physicochemical

Structure (SMILES) | solubility [1] [µg/mL] | solubility [2] [µg/mL]
O=S(=O)(O)O.S=C(NCc1ccc2c(c1)OCO2)N1CCN(c2ncnc3c2oc2ccccc23)CC1 | 1.7 | 3.3
Cc1ccc(S(=O)(=O)O)cc1.S=C(NCc1ccc2c(c1)OCO2)N1CCN(c2ncnc3c2oc2ccccc23)CC1 |  | 1.87
O=S(=O)(O)c1ccccc1.S=C(NCc1ccc2c(c1)OCO2)N1CCN(c2ncnc3c2oc2ccccc23)CC1 |  | 4.26
CS(=O)(=O)O.S=C(NCc1ccc2c(c1)OCO2)N1CCN(c2ncnc3c2oc2ccccc23)CC1 | 2.16 | 5.96
